According to ChEMBL document CHEMBL2331276, “A novel class of 3-(phenoxy-phenyl-methyl)-pyrrolidines as potent and balanced norepinephrine and serotonin reuptake inhibitors: synthesis and structure-activity relationships” (Bioorg Med Chem Lett, 2013):

How the values were obtained:
in vitro [1] = conditions: human, liver microsomes
in vitro [2] = conditions: rat, liver microsomes
[3] = Oral bioavailability in rat at 10 mg/kg; type: ADME, organism-based; conditions: in vivo
[4] = AUC in rat at 10 mg/kg, po; type: ADME, organism-based; set-up: dose 10 mg/kg, route oral; conditions: plasma

Structure (SMILES)	microsomal CLint (in vitro [1])	microsomal CLint (in vitro [2])	bioavailability [3]	AUC [4]
Clc1cccc(O[C@@H](c2ccccc2)[C@H]2CCNC2)c1Cl	< 5 µL/min/mg			
Clc1cc(Cl)cc(O[C@@H](c2ccccc2)[C@H]2CCNC2)c1	< 5 µL/min/mg	4530 µL/min/mg		
Clc1cc(Cl)cc(O[C@H](c2ccccc2)[C@@H]2CCNC2)c1	< 5 µL/min/mg	21 µL/min/mg		
Fc1ccc(O[C@@H](c2ccccc2)[C@H]2CCNC2)c(Cl)c1	< 5 µL/min/mg	185 µL/min/mg		
COc1cc(Cl)ccc1O[C@@H](c1ccccc1)[C@H]1CCNC1	< 5 µL/min/mg	1990 µL/min/mg		
COc1cc([N+](=O)[O-])ccc1O[C@@H](c1ccccc1)[C@H]1CCNC1	< 5 µL/min/mg			
Clc1cc(Cl)c(Cl)c(O[C@H](c2ccccc2)[C@@H]2CCNC2)c1	< 5 µL/min/mg	100 µL/min/mg		
Clc1ccc(Cl)c(O[C@@H](c2ccccc2)[C@H]2CCNC2)c1Cl	< 5 µL/min/mg	4620 µL/min/mg		
Clc1ccc(Cl)c(O[C@H](c2ccccc2)[C@@H]2CCNC2)c1Cl	< 5 µL/min/mg	4600 µL/min/mg	6%	70 ng·h/mL
Fc1ccc(F)c(O[C@@H](c2ccccc2)[C@H]2CCNC2)c1Cl	113 µL/min/mg	1660 µL/min/mg		
Fc1ccc(F)c(O[C@H](c2ccccc2)[C@@H]2CCNC2)c1Cl	115 µL/min/mg	1340 µL/min/mg		
Fc1cc(F)c(F)c(O[C@H](c2ccccc2)[C@@H]2CCNC2)c1F	< 5 µL/min/mg	200 µL/min/mg		
CCN(CC)C(=O)C1(c2ccccc2)CC1CN (stereo not drawn)	< 5 µL/min/mg	< 5 µL/min/mg		
CCOc1ccccc1O[C@@H](c1ccccc1)[C@@H]1CNCCO1 [ESREBOXETINE]	570 µL/min/mg	5100 µL/min/mg		
